We go through three compounds from patent US11623940B2, “Methods of nucleic acid synthesis comprising polyphosphate containing species” (Nuclera Nucleics Ltd., priority 2017, dated 2023).

Entries after “also recorded” stand apart in the source; their conditions may differ.

Experiment [1] deals with terminal transferase. The experiment in a line: Terminal transferase-mediated addition of capping polyphosphate species to initiator strand (denaturing polyacrylamide gel). It is filed as biochemical. As to conditions: for conversion of initiator strand of length N by terminal transferase-mediated addition: FIG. 1 lanes 2 and 3. The source says:
(§1) FIG. 1: Incorporation of dideoxynucleoside triphosphates by a terminal transferase prevents subsequent DNA synthesis. Lane 1: initiator sequence; Lane 2: dideoxyadenosine triphosphate addition; Lane 3: dideoxythymidine triphosphate addition; Lanes 4-6: duplicates of lanes 1-3 exposed to dCTP tailing conditions; Lane 7: initiator sequence. While dCTP tailing leads to the formation of a range of higher molecular weight products (Lane 4), prior treatment with a terminal transferase and dideoxynucleoside triphosphate prevents the formation of such higher molecular weight species (Lanes 5 and 6).
FIG. 2: Incorporation of tripolyphosphate by a terminal transferase prevents subsequent DNA synthesis. Lane 1: initiator sequence; Lane 2: 1 mM sodium tripolyphosphate; Lane 3: 10 mM sodium tripolyphosphate; Lane 4: 50 mM sodium tripolyphosphate; Lanes 5-7: duplicates of lanes 2-4 exposed to dCTP tailing conditions. Reaction products were analysed by denaturing polyacrylamide gel and visualized by an internal FAM dye.
(§2) Data is presented herein which exemplifies the utility of dideoxynucleoside triphosphates as a capping agent by incorporating a dideoxynucleotide using a terminal transferase, and so preventing polymerization of deoxycytidine triphosphate (dCTP) in a subsequent step with terminal transferase (FIG. 1). […] When the initiator strand is exposed to terminal transferase in the presence of dCTP, many higher molecular weight products are formed (a smear on the gel) due to the uncontrolled incorporation of dCTP into the initiator strand (lane 4). […] Lane 7 is a duplicate of lane 1.
(§3) Data is presented herein which exemplifies the utility of tripolyphosphate as a capping agent by incorporating a phosphate moiety on the 3′-terminus of an oligonucleotide using a terminal transferase, and so preventing polymerization of dCTP in a subsequent step with terminal transferase (FIG. 2). […] The new species migrates faster on the polyacrylamide gel due to the additional charge presented by the new 3′-phosphate moiety. […] Following incubation with the terminal transferase and tripolyphosphate, the mixture was removed. The initiator strand was then incubated with a terminal transferase and canonical dCTP. If a free 3′-hydroxyl is present, terminal transferase will add many dCTP in an uncontrolled fashion to generate higher molecular weight oligonucleotides.

Experiment [2] concerns terminal transferase. The experiment in a line: dCTP tailing with terminal transferase after capping pre-treatment of initiator strand (gel). As to conditions: for incorporation of dCTP into pre-treated initiator strand when exposed to terminal transferase and dCTP: FIG. 1 lanes 5 and 6, pre-treated with dideoxynucleoside triphosphate. The class given is biochemical.
Excerpt: as §1
FIG. 2: Incorporation of tripolyphosphate by a terminal transferase prevents subsequent DNA synthesis. […] Reaction products were analysed by denaturing polyacrylamide gel and visualized by an internal FAM dye.
as §2, §3

In the case of sodium tripolyphosphate, the “terminal transferase mediated 3′-phosphorylation of initiator strand” value with terminal transferase [1] (1 mM tripolyphosphate, FIG. 2 lane 2) is listed as “partially converted to a new 3′-phosphorylated species; also recorded: converted to a 3′-phosphorylated initiator sequence”; with terminal transferase [1] (5 mM tripolyphosphate, FIG. 2 lane 3), “partially converted to a new 3′-phosphorylated species”; in the experiment on terminal transferase [1] (50 mM tripolyphosphate, FIG. 2 lane 4), “does not proceed”. Besides, the “terminal transferase mediated 3′-phosphorylation of initiator sequence” value in the experiment on terminal transferase [1] (10 mM sodium tripolyphosphate, FIG. 2 lane 3 (figure legend)) was “converted to a 3′-phosphorylated initiator sequence”. Further, the “dCTP polymerization by terminal transferase after capping pre-incubation” value was “largely prevents this polymerization; also recorded: resistant to enzyme mediated DNA polymerisation” with terminal transferase [2] (pre-incubation with 1 mM tripolyphosphate, FIG. 2 lane 5); “largely prevents this polymerization” in the experiment on terminal transferase [2] (pre-incubation with 5 mM tripolyphosphate, FIG. 2 lane 6); “complete polymerization to higher molecular weight species” in the experiment with terminal transferase [2] (pre-incubation with 50 mM tripolyphosphate, FIG. 2 lane 7). The “dCTP polymerisation by terminal transferase after capping pre-incubation” value in the experiment with terminal transferase [2] (pre-incubation with 10 mM sodium tripolyphosphate, FIG. 2 lane 6 (figure legend)) was “resistant to enzyme mediated DNA polymerisation”.
Consider `Nc1ncnc2c1ncn2[C@H]1CC[C@@H](COP(=O)(O)OP(=O)(O)OP(=O)(O)O)O1` [ddATP, dideoxyadenosine triphosphate], for which the “conversion of initiator strand of length N by terminal transferase-mediated addition” value with terminal transferase [1] is reported as “converted to an N+1 species”. Moreover, the “incorporation of dCTP into pre-treated initiator strand when exposed to terminal transferase and dCTP” value in the experiment on terminal transferase [2] is listed as “resistant to incorporation of dCTP”.
As to dideoxythymidine triphosphate [ddTTP], the “conversion of initiator strand of length N by terminal transferase-mediated addition” value with terminal transferase [1] was “converted to an N+1 species”. Moreover, in the experiment on terminal transferase [2], the “incorporation of dCTP into pre-treated initiator strand when exposed to terminal transferase and dCTP” value is recorded as “resistant to incorporation of dCTP”.
